Reference: patent US8791267B2, “Biaryl PDE4 inhibitors for treating inflammatory, cardiovascular and CNS disorders” (Decode Genetics EHF, priority 2007, dated 2014)
pIC50: −log10 of the molar value. Where a name gives a salt, the structure may show the parent alone.

Legend:
[1] = molecular target: PDE4 (Homo sapiens, UniProt Q08499); test: In-vitro assay for PDE4 enzymes, real-time enzyme-coupled spectrophotometric assay (Table 9); format: biochemical; conditions: human PDE4D; activity class, Table 9; read-out: hPDE4D
[2] = molecular target: PDE4B (Homo sapiens, UniProt Q07343); test: In-vitro assay for PDE4 enzymes, real-time enzyme-coupled spectrophotometric assay, PDE4B Activity (Table 10); format: biochemical; conditions: human PDE4B (hPDE4B), enzyme-coupled spectrophotometric assay; read-out: PDE4B Activity, hPDE4B
Sequence of PDE4B (Q07343 whole entry): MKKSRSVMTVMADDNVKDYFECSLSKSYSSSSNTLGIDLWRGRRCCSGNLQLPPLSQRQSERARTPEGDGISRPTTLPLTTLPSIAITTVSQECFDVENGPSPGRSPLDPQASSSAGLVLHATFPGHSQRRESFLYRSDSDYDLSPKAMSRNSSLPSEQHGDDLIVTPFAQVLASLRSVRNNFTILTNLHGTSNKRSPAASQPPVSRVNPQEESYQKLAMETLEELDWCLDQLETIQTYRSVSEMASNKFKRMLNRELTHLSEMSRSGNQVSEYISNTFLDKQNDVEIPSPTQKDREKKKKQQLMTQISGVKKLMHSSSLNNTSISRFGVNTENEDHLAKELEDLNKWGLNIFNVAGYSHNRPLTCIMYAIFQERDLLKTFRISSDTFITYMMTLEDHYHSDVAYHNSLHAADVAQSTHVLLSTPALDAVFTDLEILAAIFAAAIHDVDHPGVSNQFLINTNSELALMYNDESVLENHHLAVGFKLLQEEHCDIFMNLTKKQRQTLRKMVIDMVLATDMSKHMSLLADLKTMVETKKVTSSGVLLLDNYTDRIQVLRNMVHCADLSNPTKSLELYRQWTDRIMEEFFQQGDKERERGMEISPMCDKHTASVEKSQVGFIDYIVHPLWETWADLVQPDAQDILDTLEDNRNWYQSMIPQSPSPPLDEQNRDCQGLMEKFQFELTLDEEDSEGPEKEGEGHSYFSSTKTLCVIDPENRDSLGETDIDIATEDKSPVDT

Sequence of PDE4 (Q08499 whole entry): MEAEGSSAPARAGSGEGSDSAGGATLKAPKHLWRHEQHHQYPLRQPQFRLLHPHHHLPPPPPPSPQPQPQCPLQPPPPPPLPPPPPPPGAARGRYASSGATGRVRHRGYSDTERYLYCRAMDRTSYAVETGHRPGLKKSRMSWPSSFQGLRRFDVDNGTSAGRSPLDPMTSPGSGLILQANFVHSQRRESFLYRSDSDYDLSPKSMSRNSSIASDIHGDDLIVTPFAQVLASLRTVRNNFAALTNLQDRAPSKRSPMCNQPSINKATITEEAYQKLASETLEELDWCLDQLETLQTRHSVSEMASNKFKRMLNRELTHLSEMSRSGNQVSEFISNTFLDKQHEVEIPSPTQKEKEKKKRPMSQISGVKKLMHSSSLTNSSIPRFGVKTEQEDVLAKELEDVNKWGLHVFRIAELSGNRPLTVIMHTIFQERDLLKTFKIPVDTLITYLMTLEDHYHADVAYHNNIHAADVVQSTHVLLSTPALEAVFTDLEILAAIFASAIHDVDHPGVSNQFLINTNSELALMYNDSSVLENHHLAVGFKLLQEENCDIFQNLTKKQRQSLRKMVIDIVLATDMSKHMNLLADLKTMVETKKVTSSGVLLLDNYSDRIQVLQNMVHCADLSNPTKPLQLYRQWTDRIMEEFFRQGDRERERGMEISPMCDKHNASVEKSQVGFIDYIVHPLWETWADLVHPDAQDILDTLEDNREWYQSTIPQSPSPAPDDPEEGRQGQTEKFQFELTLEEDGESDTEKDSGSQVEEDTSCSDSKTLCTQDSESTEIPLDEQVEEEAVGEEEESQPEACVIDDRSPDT

| pIC50 [1] | pIC50 [2] | SMILES |
| --- | --- | --- |
| > 5.30 | 4.70 to 5.30 | COc1ccc(Cn2nnc3ccccc32)cc1-c1cccc([N+](=O)[O-])c1 [P-007, 1-(6-Methoxy-3′-nitro-biphenyl-3-ylmethyl)-1H-benzotriazole] |
| > 5.30 | > 5.30 | COc1ccc(Cc2cccc(N)c2)cc1-c1cccc(Cl)c1 [P-255, 3-(3′-Chloro-6-methoxy-biphenyl-3-ylmethyl)-phenylamine] |
| 4.70 to 5.30 | 4.70 to 5.30 | COc1ccc(Cn2cc(C(N)=O)ccc2=O)cc1-c1cccc([N+](=O)[O-])c1 [P-212, 1-(6-Methoxy-3′-nitro-biphenyl-3-ylmethyl)-6-oxo-1,6-dihydro-pyridine-3-carboxylic acid amide] |
| > 5.30 | > 5.30 | COc1ccc(CN2CCNC2=O)cc1-c1cccc([N+](=O)[O-])c1 [P-034, 1-(6-Methoxy-3′-nitro-biphenyl-3-ylmethyl)-imidazolidin-2-one] |
| > 5.30 | > 5.30 | COc1ccc(Cc2ccc(F)cc2)cc1-c1cccc([N+](=O)[O-])c1 [P-001, 5-(4-Fluoro-benzyl)-2-methoxy-3′-nitro-biphenyl] |
| > 5.30 | > 5.30 | COc1ccc(CC2CCCS2)c(F)c1-c1cccc([N+](=O)[O-])c1 (stereo not shown) [P-128, 2-(2-fluoro-6-methoxy-3′-nitro-biphenyl-3-ylmethyl)-tetrahydro-thiophene] |
| > 5.30 | > 5.30 | COc1ccc(Cc2ccc(NC(N)=O)cc2)c(F)c1-c1cccc(Cl)c1 [P-243, [4-(3′-chloro-2-fluoro-6-methoxy-biphenyl-3-ylmethyl)-phenyl]-urea] |
| > 5.30 | > 5.30 | NCc1ccc(Cc2ccc(OC(F)F)c(-c3cccc(Cl)c3)c2)cn1 [P-596, C-[5-(3′-Chloro-6-difluoromethoxy-biphenyl-3-ylmethyl)-pyridin-2-yl]-methylamine] |
| > 5.30 | 4.70 to 5.30 | COc1ccc(Cc2ccc(C(N)=O)cc2)c(F)c1-c1cccc(C(C)=O)c1 [P-305, 4-(3′-Acetyl-2-fluoro-6-methoxy-biphenyl-3-ylmethyl)-benzamide] |
| > 5.30 | > 5.30 | CCOC(=O)NCc1ccc(Cc2ccc(OC)c(-c3cccc(Cl)c3)c2F)cn1 [P-367, [5-(3′-Chloro-2-fluoro-6-methoxy-biphenyl-3-ylmethyl)-pyridin-2-ylmethyl]-carbamic acid ethyl ester] |
| > 5.30 | > 5.30 | COc1ccc(Cc2cnc(N(C)C)nc2)c(F)c1-c1cccc(C(C)=O)c1 [P-325, 1-[3′-(2-Dimethylamino-pyrimidin-5-ylmethyl)-2′-fluoro-6′-methoxy-biphenyl-3-yl]-ethanone] |
| > 5.30 | 4.70 to 5.30 | COc1ccc(Cc2ccc(OCCN(C)C)cc2)cc1-c1cccc([N+](=O)[O-])c1 [P-164] |
| 4.70 to 5.30 | 4.70 to 5.30 | COc1ccc(C[S+]([O-])c2ccc(F)cc2)cc1-c1cccc([N+](=O)[O-])c1 (stereo not shown) [P-192, 5-(4-Fluoro-benzenesulfinylmethyl)-2-methoxy-3′-nitro-biphenyl] |
| > 5.30 | > 5.30 | [2H]C([2H])(c1ccc(NC(N)=O)cc1)c1ccc(OC)c(-c2cccc(Cl)c2)c1F [P-532, {4-[(3′-Chloro-2-fluoro-6-methoxy-biphenyl-3-yl)-bisduetero-methyl]-phenyl}-urea] |
| > 5.30 | 4.70 to 5.30 | COc1ccc(Cn2cnc(-c3cccnc3)c2)c(F)c1-c1cccc(Cl)c1 [P-479, 3-[1-(3′-Chloro-2-fluoro-6-methoxy-biphenyl-3-ylmethyl)-1H-imidazol-4-yl]-pyridine] |
| > 5.30 | 4.70 to 5.30 | COc1ccc(CN2CCN(C(N)=O)CC2)c(F)c1-c1cccc(Cl)c1 [P-370] |
| > 5.30 | > 5.30 | CNc1ccc(Cc2ccc(OC)c(-c3cccc(C(C)=O)c3)c2F)cc1 [P-331, [4-(3′-Acetyl-2-fluoro-6-methoxy-biphenyl-3-ylmethyl)-phenyl]-methyl-amine hydrochloride] |
| > 5.30 | 4.70 to 5.30 | COc1ccc(Cc2ccc(Cl)nc2)c(F)c1-c1cccc(Cl)c1 [P-226] |
| > 5.30 | > 5.30 | COc1ccc(Cn2cncn2)cc1-c1ccc2c(c1)OCO2 [P-044, 1-(3-Benzo[1,3]dioxol-5-yl-4-methoxy-benzyl)-1H-[1,2,4]triazole] |
| > 5.30 | > 5.30 | O=[N+]([O-])c1cccc(-c2cc(C(O)c3ccc(F)cc3)ccc2OC(F)(F)F)c1 (stereo not shown) [P-079, (4-Fluoro-phenyl)-(3′-nitro-6-trifluoromethoxy-biphenyl-3-yl)-methanol] |
| > 5.30 | 4.70 to 5.30 | COc1ccc(Cc2ccc(N)c(O)c2)c(F)c1-c1cccc(Cl)c1 [P-256] |
| > 5.30 | > 5.30 | COc1ccc(Cc2ccc(N)cc2)cc1-c1cccc([N+](=O)[O-])c1 [P-113] |
| > 5.30 | > 5.30 | COc1ccc(Cc2ccc(NC(N)=O)c(O)c2)c(F)c1-c1cccc(Cl)c1 [P-262] |
| > 5.30 | 4.70 to 5.30 | NC(=O)Nc1ccc(Cc2ccc(OC[C@@H]3CCCN3)c(-c3cccc(Cl)c3)c2)cc1 [P-563, {4-[3′-Chloro-6-((S)-1-pyrrolidin-2-ylmethoxy)-biphenyl-3-ylmethyl]-phenyl}-urea] |

| pIC50 [1] | pIC50 [2] | SMILES |
| --- | --- | --- |
| > 5.30 | > 5.30 | COc1ccc(Cc2ccc(N3CCCC3)nc2)c(F)c1-c1cccc(Cl)c1 [P-582, 5-(3′-Chloro-2-fluoro-6-methoxy-biphenyl-3-ylmethyl)-2-pyrrolidin-1-yl-pyridine] |
| > 5.30 | > 5.30 | COc1ccc(Cc2ccc(CNC(N)=O)c(O)c2)c(F)c1-c1cccc(Cl)c1 [P-301] |
| > 5.30 | > 5.30 | COc1ccc(Cn2ccc3ccccc32)cc1-c1cccc([N+](=O)[O-])c1 [P-010, 1-(6-Methoxy-3′-nitro-biphenyl-3-ylmethyl)-1H-indole] |
| > 5.30 | > 5.30 | COc1ccc(Cc2ccc(C(C)(C)O)nc2)c(F)c1-c1cccc(Cl)c1 [P-587, 2-[5-(3′-Chloro-2-fluoro-6-methoxy-biphenyl-3-ylmethyl)-pyridin-2-yl]-propan-2-ol hydrochloride] |
| > 5.30 | > 5.30 | COc1ccc(Cc2ccc(Cl)nc2)c(F)c1-c1cccc([N+](=O)[O-])c1 [P-152] |
| > 5.30 | > 5.30 | COc1ccc(Cn2cncc2C(N)=O)c(F)c1-c1cccc(Cl)c1 [P-535, 3-(3′-Chloro-2-fluoro-6-methoxy-biphenyl-3-ylmethyl)-3H-imidazole-4-carboxylic acid amide] |
| > 5.30 | > 5.30 | COc1ccc(Cc2ccc(N3CC(O)C3)nc2)c(F)c1-c1cccc(Cl)c1 [P-457, 1-[5-(3′-Chloro-2-fluoro-6-methoxy-biphenyl-3-ylmethyl)-pyridin-2-yl]-azetidin-3-ol] |
| > 5.30 | > 5.30 | COc1ccc(C(=O)c2ccc(F)cc2)c(F)c1-c1cccc([N+](=O)[O-])c1 [P-049] |
| 4.70 to 5.30 | > 5.30 | COc1ccc(Cn2nc3ccccn3c2=O)cc1-c1cccc([N+](=O)[O-])c1 [P-047, 2-(6-Methoxy-3′-nitro-biphenyl-3-ylmethyl)-2H-[1,2,4]triazolo[4,3-a]pyridin-3-one] |
| > 5.30 | > 5.30 | CCNC(=O)Nc1nnc(Cc2ccc(OC)c(-c3cccc(Cl)c3)c2F)s1 [P-343, 1-[5-(3′-Chloro-2-fluoro-6-methoxy-biphenyl-3-ylmethyl)-[1,3,4]thiadiazol-2-yl]-3-ethyl-urea] |
| > 5.30 | > 5.30 | COC(=O)Nc1nnc(Cc2ccc(OC)c(-c3cccc(Cl)c3)c2F)s1 [P-342, Methyl[5-(3′-Chloro-2-fluoro-6-methoxy-biphenyl-3-ylmethyl)-[1,3,4]thiadiazol-2-yl]-carbamate] |
| > 5.30 | > 5.30 | COc1ccc(Cc2ccncc2)cc1-c1cccc([N+](=O)[O-])c1 [P-008] |
| > 5.30 | > 5.30 | COc1ccc(Cc2ccc(NC(=O)NC3CCCO3)cc2)cc1-c1cccc(Cl)c1 (stereo not shown) [P-566, 1-[4-(3′-Chloro-6-methoxy-biphenyl-3-ylmethyl)-phenyl]-3-(tetrahydro-furan-2-yl)-urea] |
| > 5.30 | > 5.30 | COc1ccc(Cn2cnnc2)cc1-c1cccc([N+](=O)[O-])c1 [P-066, 4-(6-Methoxy-3′-nitro-biphenyl-3-ylmethyl)-4H-[1,2,4]triazole] |
| > 5.30 | > 5.30 | COc1ccc(Cc2ccc(NC(C)=O)cc2)cc1-c1cccc([N+](=O)[O-])c1 [P-114] |
| > 5.30 | 4.70 to 5.30 | COc1ccc(Cn2cncn2)cc1-c1cccc(F)c1 [P-058, 1-(3′-Fluoro-6-methoxy-biphenyl-3-ylmethyl)-1H-[1,2,4]triazole] |
| > 5.30 | > 5.30 | COc1ccc(Cc2ccc3[nH]c(=O)oc3c2)c(F)c1-c1cccc(Cl)c1 [P-263] |
| > 5.30 | > 5.30 | COc1ccc(Cc2cnc(NC(N)=O)nc2)c(F)c1-c1cccc(Cl)c1 [P-291] |
| > 5.30 | 4.70 to 5.30 | COc1ccc(Cn2ccc(C#N)cc2=O)cc1-c1cccc([N+](=O)[O-])c1 [P-196, 1-(6-Methoxy-3′-nitro-biphenyl-3-ylmethyl)-2-oxo-1,2-dihydro-pyridine-4-carbonitrile] |
| > 5.30 | 4.70 to 5.30 | COc1ccc(Cn2cccn2)cc1-c1ccc2c(c1)OCO2 [P-074, 1-(3-Benzo[1,3]dioxol-5-yl-4-methoxy-benzyl)-1H-pyrazole] |
| > 5.30 | > 5.30 | COc1ccc(Cc2ccc(NC(C)=O)nc2)c(F)c1-c1cccc(Cl)c1 [P-387] |
| > 5.30 | > 5.30 | CNC(=O)NCc1ccc(Cc2ccc(OC(F)F)c(-c3cccc(Cl)c3)c2)cn1 [P-598, 1-[5-(3′-Chloro-6-difluoromethoxy-biphenyl-3-ylmethyl)-pyridin-2-ylmethyl]-3-methyl-urea hydrochloride] |
| > 5.30 | 4.70 to 5.30 | COc1ccc(CN2C(=O)CCC2=O)cc1-c1cccc([N+](=O)[O-])c1 [P-036, 1-(6-Methoxy-3′-nitro-biphenyl-3-ylmethyl)-pyrrolidine-2,5-dione] |
